Assay results published in publication PMC11666850, “Development and evaluation of deuterated [^18F]JHU94620 isotopologues for the non-invasive assessment of the cannabinoid type 2 receptor in brain” (EJNMMI Radiopharmacy and Chemistry, 2024).
pKd: −log10 of the molar value. Read-outs that look alike come from different tables or passages of the source.

Assays:
human CB2R (hCB2R) = molecular target: T1, human CB2R (hCB2R) (Homo sapiens, UniProt P34972); assay: Homologous competition binding, CHO(hCB2R) cell membranes
T1 construct: expressed in transfected cells; host or cells: CHO(hCB2R) cells, obtained from Paul L. Prather, University of Arkansas for Medical Sciences
T1 sequence (P34972 whole entry): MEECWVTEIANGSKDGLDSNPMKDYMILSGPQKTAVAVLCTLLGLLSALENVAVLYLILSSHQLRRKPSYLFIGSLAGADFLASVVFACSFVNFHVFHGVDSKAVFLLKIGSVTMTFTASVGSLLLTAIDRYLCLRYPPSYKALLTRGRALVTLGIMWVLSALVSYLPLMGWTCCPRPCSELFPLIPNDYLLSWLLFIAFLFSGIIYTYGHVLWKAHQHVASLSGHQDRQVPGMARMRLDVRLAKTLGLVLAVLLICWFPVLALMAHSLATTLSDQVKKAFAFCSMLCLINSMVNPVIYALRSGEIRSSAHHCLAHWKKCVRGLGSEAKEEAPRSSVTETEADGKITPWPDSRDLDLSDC
Protocol: For binding studies crude homogenates of CHO(hCB2R) cells (obtained from Paul L. Prather, Department of Pharmacology and Toxicology, College of Medicine, University of Arkansas for Medical Sciences, USA) were incubated with the reference compound (self-blocking) or the CB2R-specific partial agonist GW405833 (Tocris Bioscience, Bristol, UK) with indicated concentrations at room temperature for 90 min. The total volume of 1 mL of each sample consisted of 600 µL incubation buffer (50 mM Tris HCl pH7.4, 5 mM MgCl2, 1 mM EDTA and 1% Bovine Serum Albumin), 200 µL cell membrane homogenates, 100 µL competitor or binding buffer (total binding) and 100 µl of binding buffer with [^18F]JHU94620-d8 (about 100 kBq per vial, corresponding to 0.8 to 1.6 nM). Incubation was terminated by rapid filtration through a GF-B glass fibre filter, pre-treated with 0.5% PVP with 0.1% Tween 20 solution, using a 48-well cell harvester, washed six times with buffer and filter bound activity was subsequently measured in a γ-counter (1480 WIZARD, Perkin Elmer, Turku, Finland).
The KD values were calculated with GraphPad Prism according to the modified Cheng-Prusoff method for homologous competitive binding studies, where the KD = Ki = IC50—[radioligand] and the Bmax = specific binding / [radioligand] / ((KD + [radioligand])) (Motulsky and Neubig [2000]), assuming a total protein content of 8.2% (1.3 10^–4 µg protein per voxel) in the spleen (Zaia et al. [2000]) or by determining the protein concentration of the cell membrane lysates using a BCA assay (Thermo Scientific, Braunschweig, Germany). The fractional occupancy defined as occupied binding sites per total binding sites is used to describe the binding fraction specifically bound to CB2R compared to unspecific binding, where [L] is the concentration of the ligand at the start of incubation.

in vivo = details: male, Wistar, rat, iv
Protocol: Female adult CD-1 mice (25–42 g body weight) were used for radiometabolite analysis of [^18F]JHU94620-d4 (n = 2, 33 and 34 MBq) and [^18F]JHU94620-d8 (n = 3, 26–33 MBq) at 30 min after intravenous tail vein injection of the radiotracer to allow for the comparison of radiometabolite analysis of [^18F]JHU94620 (Moldovan et al. [2016]). The mice were immobilized by short isoflurane narcosis for the injection of the radiotracer in a restrainer and awakened mice were kept in an isolated cage until euthanisation by cervical dislocation under isoflurane narcosis. Male Wistar rats (n = 12, 613–794 g) were used for radiometabolite analysis of [^18F]JHU94620-d8 at different time points (5, 15, 30 and 60 min p.i.) after intravenous tail vein injection of the radiotracer (37–74 MBq) for the correction of the input function in pharmacokinetic analysis. Rats were kept under isoflurane narcosis (gas mixture: 2.5% isoflurane and O2) on a warmed plate until euthanization by decapitation of deep narcotized animals. Plasma samples were obtained by centrifugation with 5500 g of blood samples for 2 min at 4 °C. Resected tissues brain and spleen were kept on ice and minced for 3 × 20 s with adding 0.5 to 1 mL of 0.9% NaCl using a Precellys lysing kit and Minilys homogenizer (Bertin Technologies SAS, Montigny-le-Bretonneux, France).
The samples were further processed for subsequent radio-chromatographic analyses. Two consecutive extractions were performed in duplicates for plasma and brain determinations. Plasma, brain and spleen samples were added to the four time the volume of an ice-cold MeOH/H2O mixture (9:1, v/v). […] The activities of supernatants and precipitates were measured in a γ-counter (1480 WIZARD, Perkin Elmer), and the extraction efficiencies were calculated as the ratio of radioactivity in the supernatant to the radioactivity in the original sample (supernatant + precipitate). The supernatants from both extractions were combined, concentrated at 70 °C under argon stream up to a remaining volume of 100 µL, and subsequently analysed by analytical radio-HPLC (method A or B).

[1] = assay type: in vitro ADME; details: Wistar, rat
Protocol: From the wildtype rats used for in vivo metabolism studies a hematocrit content of 0.56 ± 0.04 (n = 11) was determined by a 5 min centrifugation of 50 µl blood in a hematocrit centrifuge at 500 g. The free plasma fraction (fp) of [^18F]JHU94620-d8 was determined gravimetrically by ultrafiltration of 100 µl rat plasma samples incubated for 5, 15, 30 and 60 min at 37 °C for 20 min at 14,000 g utilizing Nanosep® centrifugal filters (10 kDa, Pall Laboratory, USA). The brain PET images were co-registered to the PMOD integrated Px Rat (W. Schiffer) T2 MR template and the brain stem, cerebellum, left cortex and left midbrain region from the corresponding brain atlas were used for the determination of the regional TACs. Due to high spillover signals from the hCB2R(D80N) expressing region not all provided atlas regions could be evaluated. Subsequently, the total tissue distribution (VT) was estimated by 2-tissue compartment modelling. For correction of the TACs, an averaged image-derived input function (pIDIF, plasma-to-whole blood ratio corrected), determined in biodistribution studies and the parent fraction derived from metabolism studies in Wistar rats (Watabe fit) and pIDIF (3-exponential fit) were integrated into the modelling process. The binding potential was estimated by a simplified reference tissue modelling (SRTM) using the cerebellar region as reference. […]

hCB2R(D80N) [2] = molecular target: T2, hCB2R(D80N) (Homo sapiens, UniProt P34972, D80N); assay: Homologous displacement autoradiography, brain cryosections of rats with hCB2R(D80N) overexpression; assay type: binding
T2 sequence (P34972 whole entry D80N): as the sequence (P34972 whole entry) above, with D80N counted along it

hCB2R(D80N) [3] = molecular target: T2, hCB2R(D80N)
[4] = female, Wistar, rat, in vivo, 60 min

SMILES: [2H]C([2H])([18F])C([2H])([2H])C([2H])([2H])C([2H])([2H])n1c(C)c(C)s/c1=N\C(=O)C1C(C)(C)C1(C)C [[^18F]JHU94620-d8]
- pKd (human CB2R (hCB2R)): 8.83
- Bmax (human CB2R (hCB2R); CHO(hCB2R) cell membrane fractions): 2.7 pmol mg^−1 protein
- half-life (in vivo; metabolic half-life (t1/2) in brain): 53.8 min
- half-life (in vivo; metabolic half-life (t1/2) in plasma): 7.6 min
- half-life (in vivo; metabolic half-life (t1/2) in spleen): 37.3 min
- free plasma fraction (fp) [1]: 0.3 ± 0.1
- pKd (hCB2R(D80N) [2]): 7.39
- BPND in the hCB2R(D80N) region (hCB2R(D80N) [3]; SRTM, cerebellar region as reference): 26
- reduction of AUC20-60min when normalized to the cerebellum (hCB2R(D80N) [3]; after injection of GW405833, compared to the control group): 61%
- TAC peak, potential reference regions (contralateral and cerebellum) (hCB2R(D80N) [3]; female, Wistar, rat, in vivo): about 3 SUVmean
- VT in the brain region bearing the hCB2R(D80N) overexpression (hCB2R(D80N) [3]; female, Wistar, rat, in vivo): 320 ± 135 mL ccm^−1
- VT in the other investigated brain regions (hCB2R(D80N) [3]; female, Wistar, rat, in vivo): 5.9-13.8 mL ccm^−1
- SUVmean in the cerebellar region at 60 min p.i. (hCB2R(D80N) [3]; [4]): 0.16 ± 0.03 SUVmean
- SUVmean in the contralateral region at 60 min p.i. (hCB2R(D80N) [3]; [4]): 0.8 ± 0.3 SUVmean
- AUC20-60min (CI95%), hCB2R D80N-to-Cerebellum (hCB2R(D80N) [3]; human, in vivo): 1128 (1058 to 1198) SUVr ∙ min
- AUC20-60min (CI95%), hCB2R D80N-to-Contralateral (hCB2R(D80N) [3]; human, in vivo): 291 (226 to 355) SUVr ∙ min
- AUC, Cerebellum (hCB2R(D80N) [3]; human, in vivo): 30 ± 4 SUV ∙ min
- AUC, Contralateral (hCB2R(D80N) [3]; human, in vivo): 74 ± 16 SUV ∙ min
- AUC, hCB2R(D80N) (hCB2R(D80N) [3]; human, in vivo): 412 ± 90 SUV ∙ min
- AUC20-60min (CI95%), hCB2R D80N-to-Cerebellum (hCB2R(D80N) [3]; human, in vivo, iv, 5 mg/kg): 435 (367 to 502) SUVr ∙ min
- AUC20-60min (CI95%), hCB2R D80N-to-Contralateral (hCB2R(D80N) [3]; human, in vivo, iv, 5 mg/kg): 272 (233 to 311) SUVr ∙ min
